# Source: patent EP1712231A2 (priority 1998, dated 2000)
# Experiments:
# [1] = Study 1: pharmacokinetic drug-drug interaction of tipranavir 1350 mg BID and ritonavir 500 mg BID, plasma levels by HPLC; type: in vivo, human; conditions: for CLPO / Cmin / Css: median (range), n=10
# Source text: Twelve subjects were Caucasian and two were of African descent. Ten subjects completed all aspects of the study. Pharmacokinetic analyses were based on the results obtained in these subjects. […] Detection was by UV absorbance at 260 nm. […] Ritonavir and the internal standard (IS) were extracted from human plasma by liquid-liquid extraction with an ethyl acetate mixture.
# [2] = Study 2: pharmacokinetic drug-drug interaction of tipranavir 600 or 900 mg BID and ritonavir 100-500 mg BID, plasma levels by HPLC; type: in vivo, human; conditions: for CLPO / Cmin / Css / AUC / Cmax / Tmax: median (range); for half-life / AUC / Cmax / Tmax: both sexes, human, plasma, oral; for half-life: harmonic mean (range), read-out: t½ (converted)
# Experimental: Both groups received their assigned dose of tipranavir continuously throughout the study period. […] The pharmacokinetics of tipranavir when coadministered with ritonavir were evaluated and compared with baseline data, while the ritonavir data were compared to historical data. The study was conducted in 19 healthy volunteers (16 males and 3 females) with a mean age of 30 years (range, 19-52 years), height of 177.1 cm (range, 162.6-190.5 cm), and weight of 76.7 kg (range, 57.3-95.0 kg). Eighteen subjects were Caucasian […]. […] Pharmacokinetic analyses were based on those subjects completing the baseline evaluation and at least one period of concomitant drug administration. […] Detection was by UV absorbance at 260 nm. […] Ritonavir and the internal standard (IS) were extracted from human plasma by liquid-liquid extraction with an ethyl acetate mixture.
# [3] = Example 3: pharmacokinetic drug-drug interaction of tipranavir 1200 mg BID and delavirdine 400 mg TID, plasma levels by HPLC
# Experimental: Baseline pharmacokinetic data for each drug were obtained under pharmacokinetic steady-state conditions following 7 days of dosing. Each drug was then co-administered for 10 days, at which time the pharmacokinetics of each was re-evaluated and compared with baseline data. […] All subjects were Caucasian. […] Pharmacokinetic analyses were based on results obtained in these subjects.
# Detection was by UV absorbance at 260 nm.
# Plasma samples were assayed for delavirdine concentrations using a validated, sensitive and specific isocratic high performance liquid chromatographic (HPLC) method: one for the upper concentration range, and one for the lower concentration range. […] The supernatant was mixed with buffer and directly injected. Chromatographic separation was achieved using a Brownlee cyano guard column and an analytical column, DuPont Zorbax® SB CN.
# Treatment effects on pharmacokinetic parameters were assessed using Wilcoxon's Signed Rank Test.
# [4] = Example 4: pharmacokinetic drug-drug interaction of tipranavir SEDDS 1250 mg BID and ritonavir oral solution 200 mg BID; type: in vivo, human; conditions: for CLPO / Cmin / Css: median (range)
# [5] = Table 1: tipranavir drug-drug interaction potential and routes of elimination of antiretrovirals; conditions: drug-drug interaction with tipranavir
# [6] = Tipranavir 1350 mg BID + Ritonavir 500 mg BID
# [7] = Tipranavir 1350 mg BID alone, steady state
# [8] = tipranavir 1350 mg BID + ritonavir 500 mg BID vs tipranavir alone
# [9] = Tipranavir 600 mg BID + RTV 100 mg BID, n=7
# [10] = Tipranavir 600 mg BID + RTV 500 mg BID, n=7
# [11] = Tipranavir 600 mg BID alone, n=7
# [12] = Tipranavir 900 mg BID + RTV 100 mg BID, n=6
# [13] = Tipranavir 900 mg BID + RTV 500 mg BID, n=6
# [14] = Tipranavir 900 mg BID alone, n=6
# [15] = 600 mg, Tipranavir 600 mg BID alone, n=7
# [16] = 900 mg, Tipranavir 900 mg BID alone, n=6
# [17] = tipranavir 600 mg BID + ritonavir 100 mg BID vs alone
# [18] = tipranavir 600 mg BID + ritonavir 500 mg BID vs alone
# [19] = tipranavir 900 mg BID + ritonavir 100 mg BID vs alone
# [20] = tipranavir 900 mg BID + ritonavir 500 mg BID vs alone
# [21] = Tipranavir SEDDS SEC 1250mg BID + Ritonavir Oral Solution 200mg BID, N=21
# [22] = Tipranavir SEDDS SEC 1250mg BID alone, N=22
# [23] = both sexes, human, plasma, oral, 1250 mg
# [24] = delavirdine 400 mg TID + tipranavir 1200 mg BID vs delavirdine alone
compound,measurement,setting,value
"CCC[C@@]1(CCc2ccccc2)CC(O)=C([C@H](CC)c2cccc(NS(=O)(=O)c3ccc(C(F)(F)F)cn3)c2)C(=O)O1 (relative stereo) [Tipranavir, [R-(R*,R*)]-N-[3-[1-[5,6-Dihydro-4-hydroxy-2-oxo-6-(2-phenylethyl)-6-propyl-2H-pyran-3-yl]propyl]phenyl]-5-(trifluoromethyl)-2-pyridinesulfonamide]",CLPO,[1]; [6],1.9 (1.2-3.8) L/h
same,Cmin,[1]; [6],42 (12-84) µM
same,Css,[1]; [6],100 (49-161) µM
same,Cmin,"[1]; Tipranavir 1350 mg BID + Ritonavir 500 mg BID, listed as tipranavir",42 µM
same,CLPO,[1]; [7],31 (11-100) L/h
same,Cmin,[1]; [7],0.78 (0.34-1.42) µM
same,Css,[1]; [7],6.1 (1.9-16.8) µM
same,effect on tipranavir elimination half-life (t½),[1]; [8],not accompanied by a prolongation of the elimination half-life
same,increase of mean steady-state plasma tipranavir concentrations (Css),[1]; [8],12 fold
same,increase of median tipranavir Cmax value in the presence of ritonavir,[1]; [8],approximately 5.6 fold
same,increase of median tipranavir Cmin values,[1]; [8],45 fold
same,CLPO,[2]; [9],3.35 (2.44-6.07) L/h
same,Cmin,[2]; [9],3.14 (1.61-12.8) µM
same,Css,[2]; [9],24.8 (13.7-34.0) µM
same,CLPO,[2]; [10],2.23 (1.02-4.79) L/h
same,Cmin,[2]; [10],14.3 (4.70-32.5) µM
same,Css,[2]; [10],37.2 (17.3-81.0) µM
same,Cmin,"[2]; Tipranavir 600 mg BID + RTV 500 mg BID, n=7, listed as tipranavir",14.3 µM
same,CLPO,[2]; [11],31.3 (17.3-88.8) L/h
same,Cmin,[2]; [11],0.341 (0.165-0.929) µM
same,Css,[2]; [11],2.70 (0.94-4.79) µM
same,CLPO,[2]; [12],4.10 (2.45-7.86) L/h
same,Cmin,[2]; [12],3.62 (1.98-6.95) µM
same,Css,[2]; [12],30.6 (15.8-50.8) µM
same,CLPO,[2]; [13],1.64 (1.00-2.82) L/h
same,Cmin,[2]; [13],22.7 (9.91-63.2) µM
same,Css,[2]; [13],76.1 (44.1-124.8) µM
same,CLPO,[2]; [14],32.4 (20.8-53.1) L/h
same,Cmin,[2]; [14],0.499 (0.160-1.150) µM
same,Css,[2]; [14],3.88 (2.34-5.98) µM
same,half-life,[2]; [15],3.6 h
same,AUC,[2]; [15],32.5 µM·h
same,Cmax,[2]; [15],11.3 µM
same,Tmax,[2]; [15],2 h
same,half-life,[2]; [16],4.2 h
same,AUC,[2]; [16],46.5 µM·h
same,Cmax,[2]; [16],14.6 µM
same,Tmax,[2]; [16],2 h
same,half-life,[2]; [9],2.3 h
same,AUC,[2]; [9],297 µM·h
same,Cmax,[2]; [9],56.8 µM
same,Tmax,[2]; [9],2 h
same,half-life,[2]; [10],3.7 h
same,AUC,[2]; [10],446 µM·h
same,Cmax,[2]; [10],78.6 µM
same,Tmax,[2]; [10],2 h
same,half-life,[2]; [12],1.9 h
same,AUC,[2]; [12],368 µM·h
same,Cmax,[2]; [12],68.9 µM
same,Tmax,[2]; [12],3 h
same,half-life,[2]; [13],3.5 h
same,AUC,[2]; [13],913 µM·h
same,Cmax,[2]; [13],148 µM
same,Tmax,[2]; [13],2 h
same,predicted tipranavir concentration (target minimal therapeutic threshold),[2]; extrapolated to a dose of ritonavir 30 mg BID,1 µM
same,lowest median trough tipranavir concentration,[2]; in combination with ritonavir 100 mg BID,exceeded 3 µM
same,increase of plasma tipranavir concentrations,[2]; ritonavir 100 mg BID vs same dose of tipranavir alone,~10 fold
same,increase of median AUC values of tipranavir,[2]; [17],approximately 9 fold
same,increase of median Cmax values,[2]; [17],5 fold
same,increase of median trough tipranavir concentrations,[2]; [17],approximately 9 fold
same,increase of median AUC values of tipranavir,[2]; [18],approximately 14 fold
same,increase of median Cmax values,[2]; [18],7 fold
same,increase of median trough tipranavir concentrations,[2]; [18],approximately 40 fold
same,effect on apparent terminal half-life of tipranavir,[2]; tipranavir 600 mg BID with concomitant ritonavir,no prolongation of the apparent terminal half-life
same,trough concentration,[2]; tipranavir 600 mg with ritonavir 500 mg,exceeding 3 µM
same,increase of median AUC values of tipranavir,[2]; [19],approximately 8 fold
same,increase of median Cmax values,[2]; [19],5 fold
same,increase of median trough tipranavir concentrations,[2]; [19],approximately 7 fold
same,increase of median AUC values of tipranavir,[2]; [20],approximately 20 fold
same,increase of median Cmax values,[2]; [20],10 fold
same,increase of median trough tipranavir concentrations,[2]; [20],approximately 45 fold
same,effect on apparent terminal half-life of tipranavir,[2]; tipranavir 900 mg BID with concomitant ritonavir,No prolongation of the apparent terminal half-life
same,effect of delavirdine on the pharmacokinetics of tipranavir,"[3]; tipranavir 1200 mg BID + delavirdine 400 mg TID, steady state",no effect
same,CLPO,[4]; [21],1.19 (0.47-2.29) L/h
same,Cmin,[4]; [21],62.1 (11.2-261) µM
same,Css,[4]; [21],145 (76-371) µM
same,CLPO,[4]; [22],12.7 (6.1-23.7) L/h
same,Cmin,[4]; [22],0.82(0.30-2.20) µM
same,Css,[4]; [22],13.6 (7.3-28.1) µM
same,AUC,[4]; [23],163 µM·h
same,Cmax,[4]; [23],56 µM
same,Tmax,[4]; [23],2 h
same,half-life,"[4]; both sexes, human, plasma, oral, 1250 mg, read-out: t½ (converted)",5.4 h
same,increase of tipranavir steady-state concentrations,[4]; ritonavir 200 mg vs same dose (1250 mg BID) of tipranavir alone,more than 10 fold
same,effect on apparent terminal half-life of tipranavir,[4]; tipranavir 1250 mg BID + ritonavir 200 mg BID,not significantly affected
same,increase of median Cmax values,[4]; tipranavir 1250 mg BID + ritonavir oral solution 200 mg BID vs tipranavir alone,approximately 5 fold
CC(C)Nc1cccnc1N1CCN(C(=O)c2cc3cc(NS(C)(=O)=O)ccc3[nH]2)CC1 [Delavirdine],decrease of delavirdine AUC by tipranavir,[3]; coadministration with tipranavir,> 95%
same,"median delavirdine AUC value, fold lower",[3]; [24],more than 20 fold
same,"median trough delavirdine concentration, fold lower",[3]; [24],more than 100 fold
same,Potential for Clinically Significant Interaction,[5],High (and unfavorable)
